Where only a bound is given, the exact number is not on record here.

The term % Inhibition denotes the drop in the measured response relative to a control, in per cent. Low readings indicate a weak effect, high ones a strong effect. As usually defined, the IC50 is the concentration needed to halve the response being measured.

The subject of test [1] is Olfr93. Briefly: Cell-based OR activation assay (cAMP accumulation). Further details: species or system mouse. The note with it: FIG. 6; OR-dependent accumulation of cAMP. Background: Cyclic AMP is a second messenger, typically raised through Gs and lowered through Gi signalling.
Test [2] deals with Olfr1364. Briefly: Cell-based OR activation assay (cAMP accumulation). Also on record: species or system mouse. The note with it: FIG. 6; OR-dependent accumulation of cAMP.
The subject of test [3] is Olfr398. Briefly: Cell-based OR activation assay (cAMP accumulation). Further details: species or system mouse. The note with it: FIG. 6; OR-dependent accumulation of cAMP.
Test [4] relates to Olfr120. Briefly: Cell-based OR activation assay (cAMP accumulation). Further details: species or system mouse. The note with it: FIG. 6; OR-dependent accumulation of cAMP.
The test system of test [5] is Olfr339. Briefly: Cell-based OR activation assay (cAMP accumulation). The note with it: FIG. 5; OR-dependent accumulation of cAMP. Further details: species or system mouse.
Test [6] concerns Olfr1322. Briefly: Cell-based OR activation assay (cAMP accumulation). Also on record: species or system mouse. The note with it: FIG. 5; OR-dependent accumulation of cAMP.
In test [7] the target is OR11A1 (Homo sapiens, UniProt Q9GZK7). Briefly: Cell-based OR activation assay (cAMP accumulation). Also on record: expressed in transfected cells; host or cells: HEK293T expressing human Golf. The note with it: FIG. 5; OR-dependent accumulation of cAMP.
The test system of test [8] is Olfr1487. Briefly: Cell-based OR activation assay (cAMP accumulation). Also on record: species or system mouse. The note with it: FIG. 5; OR-dependent accumulation of cAMP.
Test [9] relates to Olfr96. Briefly: Cell-based OR activation assay (cAMP accumulation). Further details: species or system mouse. The note with it: FIG. 5; OR-dependent accumulation of cAMP.
Test [10] has as its system T1, OR11A1 or OR2M3 olfactory receptor.
T1 construct: fused on or other part: Possibly N-terminal FLAG, Rho and/or Lucy tags
Briefly: Geonol olfactory receptor antagonist cell-based inhibitory dose-response assay. Further details: species or system human. The note with it: Table 2; geonol induced receptor activity, geonol at EC50.

Test [11] has as its system human sensory panel. Briefly: Sensory evaluation of geonol earthy/moss odor in binary mixtures with antagonists. The test is classed as in vivo. The note with it: percentage of geonol malodor (earthy/moss odor) remaining in binary iso-intense mixture vs REF; * = statistically different from geonol alone. The text has this: Sensory Evaluation: Five 16 oz glass jars containing either REF (geonol only), geonol only control, antagonist only, mixture of geonol and isointense antagonist, or mixture of geonol and low intensity antagonist were presented to the panelists (last four samples were randomized across panelists). The panelists were asked to familiarize themselves with the earthy/moss odor quality from the REF jar first, then rate the pleasantness, earthy/moss odor intensity and overall odor intensity of the next four samples on a 0-10 linear scale. The inter-stimulus interval between the samples was two minutes to avoid adaptation.

The test system of test [12] is OR2W1 or OR1A1 olfactory receptor. Briefly: 1-octen-3-ol olfactory receptor antagonist cell-based inhibitory dose-response assay. The note with it: Table 3.
Source text: Each cell line was screened with a volatile compound library for their inhibitory properties and potential 1-octen-3-ol smell inhibition.
Single concentration monitoring of the 1-octen-3-ol induced cell activity in the presence or absence of a test compound allowed for the identification of compounds with a putative suppression or inhibitory effect.

Chain of OR11A1 (Q9GZK7 whole entry): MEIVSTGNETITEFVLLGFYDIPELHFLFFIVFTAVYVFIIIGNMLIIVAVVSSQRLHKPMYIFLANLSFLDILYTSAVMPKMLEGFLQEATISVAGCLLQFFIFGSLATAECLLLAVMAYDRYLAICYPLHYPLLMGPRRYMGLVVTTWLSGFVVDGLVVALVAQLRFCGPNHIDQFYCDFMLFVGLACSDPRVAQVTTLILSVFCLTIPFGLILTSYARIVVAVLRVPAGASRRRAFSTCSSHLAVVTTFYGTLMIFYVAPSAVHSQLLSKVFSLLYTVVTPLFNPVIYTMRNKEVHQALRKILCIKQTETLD

For `C=CC(O)CCCCC` (centres unmarked) [1-octen-3-ol], the “activation of Olfr93” value in test [1] is “concentration-dependent and specific activation”. Moreover, the “activation of Olfr1364” value in test [2] is “concentration-dependent and specific activation”. Moreover, the “activation of Olfr398” value in test [3] was “concentration-dependent and specific activation”. The “activation of Olfr120” value in test [4] was “concentration-dependent and specific activation”.

As to `CC1CCCC2(C)CCCCC12O` [geonol, (4S,4aS,8aR)-4,8a-Dimethyl-1,2,3,4,5,6,7,-octahydronaphthalen-4a-ol], in test [5], the “activation of Olfr339” value was “concentration-dependent and specific activation”. For the same molecule, the “activation of Olfr1322” value in [6] is “concentration-dependent and specific activation”. In addition, the “activation of OR11A1” value in [7] is “concentration-dependent and specific activation”. Also, the “activation of Olfr1487” value in [8] was “concentration-dependent and specific activation”. Besides, in test [9], the “activation of Olfr96” value is “concentration-dependent and specific activation”.

Take `CCCCCC/C=C/C=O` [nonylenic aldehyde]: in test [10], the “% Inhibition” value was 30%.

For `CC(=O)OCCc1ccccc1` [phenyl ethyl acetate], in test [11], the “% Remaining in human sensory tests” value is reported as 47* %.

For the molecule `OCCc1ccccc1` [phenylethylol], the “% Remaining in human sensory tests” value in [11] came to 58%.

Regarding isobutylquinoline, in test [12] (1-octen-3-ol at single activating concentration (EC50), receptor (OR2W1 or OR1A1) not stated per compound), the IC50 is greater than 600 µM. For the same molecule, the “% Inhibition” value in [12] (normalized to baseline agonist activity, 1-octen-3-ol at EC50) came out at 30.14%; in test [10], 45%. In addition, the “% Remaining in human sensory tests” value in test [11] is 52* %.

Regarding isopropyl quinoline, in test [11], the “% Remaining in human sensory tests” value is 110%.

The values above are taken from patent US20250327793A1, “METHODS OF IDENTIFYING COMPOUNDS THAT MODULATE LAUNDRY MALODOR, MOLDY MALODOR, OR SWEAT MALODOR” (Firmenich SA, priority 2017, published 2025).
